From PMC6935304 (International Journal of Nanomedicine, 2019)
Where two headings read alike, the source gives them in different places.

Key:
[1] = In vitro drug release by dialysis against PBS, HPLC; assay type: physicochemical; conditions: room temperature
plasma proteins [2] = conditions: human; cited from earlier work
plasma proteins [3] = conditions: rat; cited from earlier work
plasma proteins [4] = conditions: dog; cited from earlier work
CSE = assay: Immunoblot of CSE expression in hearts of heart failure rats; assay type: in vivo; conditions: rat heart, 6 weeks after myocardial infarction

- Time to release from the dialysis tubing [1]: ≤ 30 min
Substance: S-propargyl-cysteine [ZYZ-802]
- Binding rate to plasma proteins (plasma proteins [2]): very low
- Binding rate to plasma proteins (plasma proteins [3]): very low
- Binding rate to plasma proteins (plasma proteins [4]): very low
- CSE expression relative to HF group or DP-LP group (CSE): 1.6 times
